{"source": "the supplement of paper PMC8967900", "data": [{"system": "COG-LL-402h", "test": "selective drug sensitivity score (sDSS, relative to normal bone marrow) (sDSS (score)); higher = more potent and effective on the cell line relative to normal bone marrow cells", "details": "72 h", "values": [{"smiles": "COC12C(COC(N)=O)C3=C(C(=O)C(C)=C(N)C3=O)N1CC1NC12", "note": "(stereo in doubt) [Mitomycin_C] (top concentration 10000 nM)", "selective drug sensitivity score": -2.86}, {"smiles": "Cc1c(-c2c(-c3ccc(F)o3)sc3ncnc(O[C@H](Cc4ccccc4OCc4ccnn4CC(F)(F)F)C(=O)O)c23)ccc(OCCN2CCN(C)CC2)c1Cl", "note": "(top concentration 1000 nM)", "selective drug sensitivity score": 6.06}, {"smiles": "Cc1ncc(Cl)cc1NCc1ccc(C(=O)N[C@@H](CC2CCCC2)C(=O)NC2CC2)s1", "note": "(top concentration 5000 nM)", "selective drug sensitivity score": 13.1}, {"smiles": "CCn1c(-c2nonc2N)nc2c(C#CC(C)(C)O)ncc(OC[C@H]3CCCNC3)c21", "note": "(top concentration 10000 nM)", "selective drug sensitivity score": 8.28}, {"smiles": "CN(c1ncccc1CNc1nc(Nc2ccc3c(c2)CC(=O)N3)ncc1C(F)(F)F)S(C)(=O)=O", "note": "(top concentration 10000 nM)", "selective drug sensitivity score": 2.42}, {"smiles": "CNc1ncc2cc(-c3cc(NC(=O)NCCC(C)(C)C)c(F)cc3C)c(C)nc2n1", "note": "(top concentration 10000 nM)", "selective drug sensitivity score": 6.76}, {"smiles": "C[C@@]1(C(=O)Nc2ccc(F)nc2)CCCN1c1nc(Nc2cc(C3CC3)n[nH]2)c2cccn2n1", "note": "(top concentration 10000 nM)", "selective drug sensitivity score": 8.18}, {"smiles": "Cc1nc(Nc2n[nH]c3c2CN(C(=O)N[C@H](CN(C)C)c2ccccc2)C3(C)C)c2sccc2n1", "note": "(top concentration 10000 nM)", "selective drug sensitivity score": 6.18}, {"smiles": "Cn1cc(-c2[nH]c3cc(NC(=O)[C@H](N)C4CCCCC4)cc4c3c2C=NNC4=O)cn1", "note": "(top concentration 10000 nM)", "selective drug sensitivity score": 7.08}, {"smiles": "Cn1cc(-c2ccc(F)c(C(F)(F)F)c2)nc1C1CCN(c2ncnc3[nH]ncc23)CC1", "note": "(top concentration 10000 nM)", "selective drug sensitivity score": -0.14}, {"smiles": "O=C(Nc1ccc2[nH]nc(-c3ccncc3)c2c1)[C@@H]1CCN(CC(=O)N2CCN(c3ccc(-c4ncccn4)cc3)CC2)C1", "note": "(top concentration 10000 nM)", "selective drug sensitivity score": 1.76}, {"smiles": "CC(C)(C)c1cc(NC(=O)Nc2ccc(Oc3ccnc4[nH]c(=O)cnc34)cc2F)n(-c2ccccc2)n1", "note": "(top concentration 25000 nM)", "selective drug sensitivity score": -1.78}, {"smiles": "Nc1ncnc2c1nc(N)n2[C@@H]1O[C@H](CO)[C@@H](O)[C@H]1O", "note": "[8-amino-adenosine] (top concentration 50000 nM)", "selective drug sensitivity score": 5.78}, {"smiles": "CC(C)[C@@H](CS(=O)(=O)C(C)C)N1C(=O)[C@@](C)(CC(=O)O)C[C@H](c2cccc(Cl)c2)[C@H]1c1ccc(Cl)cc1", "note": "[AMG-232] (top concentration 10000 nM)", "selective drug sensitivity score": 9.26}, {"smiles": "CC(C)[C@H](C(=O)Nc1ccc(C(=O)NO)cc1)c1ccccc1", "note": "[AR-42] (top concentration 10000 nM)", "selective drug sensitivity score": 10.8}, {"smiles": "O=C(Nc1c[nH]nc1-c1nc2ccc(CN3CCOCC3)cc2[nH]1)NC1CC1", "note": "[AT9283] (top concentration 1000 nM)", "selective drug sensitivity score": 7.72}, {"smiles": "CCN(CCO)CCCOc1ccc2c(Nc3cc(CC(=O)Nc4cccc(F)c4)[nH]n3)ncnc2c1", "note": "[AZD1152-HQPA] (top concentration 1000 nM)", "selective drug sensitivity score": 18.4}, {"smiles": "Cc1[nH]nc(C(F)(F)F)c1Cc1sc2c(c1C(=O)N1C[C@](C)(O)CO1)c(=O)n(C)c(=O)n2C(C)C", "note": "[AZD3965] (top concentration 1000 nM)", "selective drug sensitivity score": 0}]}, {"system": "DND-41", "test": "selective drug sensitivity score (sDSS, relative to normal bone marrow) (sDSS (score)); higher = more potent and effective on the cell line relative to normal bone marrow cells", "details": "72 h", "values": [{"smiles": "COC12C(COC(N)=O)C3=C(C(=O)C(C)=C(N)C3=O)N1CC1NC12", "note": "(stereo in doubt) [Mitomycin_C] (top concentration 10000 nM)", "selective drug sensitivity score": -2.86}, {"smiles": "Cc1c(-c2c(-c3ccc(F)o3)sc3ncnc(O[C@H](Cc4ccccc4OCc4ccnn4CC(F)(F)F)C(=O)O)c23)ccc(OCCN2CCN(C)CC2)c1Cl", "note": "(top concentration 1000 nM)", "selective drug sensitivity score": -7.74}, {"smiles": "Cc1ncc(Cl)cc1NCc1ccc(C(=O)N[C@@H](CC2CCCC2)C(=O)NC2CC2)s1", "note": "(top concentration 5000 nM)", "selective drug sensitivity score": -0.94}, {"smiles": "CCn1c(-c2nonc2N)nc2c(C#CC(C)(C)O)ncc(OC[C@H]3CCCNC3)c21", "note": "(top concentration 10000 nM)", "selective drug sensitivity score": -1.12}, {"smiles": "CN(c1ncccc1CNc1nc(Nc2ccc3c(c2)CC(=O)N3)ncc1C(F)(F)F)S(C)(=O)=O", "note": "(top concentration 10000 nM)", "selective drug sensitivity score": 0.62}, {"smiles": "CNc1ncc2cc(-c3cc(NC(=O)NCCC(C)(C)C)c(F)cc3C)c(C)nc2n1", "note": "(top concentration 10000 nM)", "selective drug sensitivity score": 8.06}, {"smiles": "C[C@@]1(C(=O)Nc2ccc(F)nc2)CCCN1c1nc(Nc2cc(C3CC3)n[nH]2)c2cccn2n1", "note": "(top concentration 10000 nM)", "selective drug sensitivity score": -5.02}, {"smiles": "Cc1nc(Nc2n[nH]c3c2CN(C(=O)N[C@H](CN(C)C)c2ccccc2)C3(C)C)c2sccc2n1", "note": "(top concentration 10000 nM)", "selective drug sensitivity score": 0.98}, {"smiles": "Cn1cc(-c2[nH]c3cc(NC(=O)[C@H](N)C4CCCCC4)cc4c3c2C=NNC4=O)cn1", "note": "(top concentration 10000 nM)", "selective drug sensitivity score": 10.3}, {"smiles": "Cn1cc(-c2ccc(F)c(C(F)(F)F)c2)nc1C1CCN(c2ncnc3[nH]ncc23)CC1", "note": "(top concentration 10000 nM)", "selective drug sensitivity score": 1.16}, {"smiles": "O=C(Nc1ccc2[nH]nc(-c3ccncc3)c2c1)[C@@H]1CCN(CC(=O)N2CCN(c3ccc(-c4ncccn4)cc3)CC2)C1", "note": "(top concentration 10000 nM)", "selective drug sensitivity score": 4.46}, {"smiles": "CC(C)(C)c1cc(NC(=O)Nc2ccc(Oc3ccnc4[nH]c(=O)cnc34)cc2F)n(-c2ccccc2)n1", "note": "(top concentration 25000 nM)", "selective drug sensitivity score": -0.78}, {"smiles": "Nc1ncnc2c1nc(N)n2[C@@H]1O[C@H](CO)[C@@H](O)[C@H]1O", "note": "[8-amino-adenosine] (top concentration 50000 nM)", "selective drug sensitivity score": -0.62}, {"smiles": "CC(C)[C@@H](CS(=O)(=O)C(C)C)N1C(=O)[C@@](C)(CC(=O)O)C[C@H](c2cccc(Cl)c2)[C@H]1c1ccc(Cl)cc1", "note": "[AMG-232] (top concentration 10000 nM)", "selective drug sensitivity score": -8.84}, {"smiles": "CC(C)[C@H](C(=O)Nc1ccc(C(=O)NO)cc1)c1ccccc1", "note": "[AR-42] (top concentration 10000 nM)", "selective drug sensitivity score": 6.98}, {"smiles": "O=C(Nc1c[nH]nc1-c1nc2ccc(CN3CCOCC3)cc2[nH]1)NC1CC1", "note": "[AT9283] (top concentration 1000 nM)", "selective drug sensitivity score": -0.68}, {"smiles": "CCN(CCO)CCCOc1ccc2c(Nc3cc(CC(=O)Nc4cccc(F)c4)[nH]n3)ncnc2c1", "note": "[AZD1152-HQPA] (top concentration 1000 nM)", "selective drug sensitivity score": -1.46}, {"smiles": "Cc1[nH]nc(C(F)(F)F)c1Cc1sc2c(c1C(=O)N1C[C@](C)(O)CO1)c(=O)n(C)c(=O)n2C(C)C", "note": "[AZD3965] (top concentration 1000 nM)", "selective drug sensitivity score": 0}]}, {"system": "HAL-01", "test": "selective drug sensitivity score (sDSS, relative to normal bone marrow) (sDSS (score)); higher = more potent and effective on the cell line relative to normal bone marrow cells", "details": "72 h", "values": [{"smiles": "COC12C(COC(N)=O)C3=C(C(=O)C(C)=C(N)C3=O)N1CC1NC12", "note": "(stereo in doubt) [Mitomycin_C] (top concentration 10000 nM)", "selective drug sensitivity score": 0.74}, {"smiles": "Cc1c(-c2c(-c3ccc(F)o3)sc3ncnc(O[C@H](Cc4ccccc4OCc4ccnn4CC(F)(F)F)C(=O)O)c23)ccc(OCCN2CCN(C)CC2)c1Cl", "note": "(top concentration 1000 nM)", "selective drug sensitivity score": -7.74}, {"smiles": "Cc1ncc(Cl)cc1NCc1ccc(C(=O)N[C@@H](CC2CCCC2)C(=O)NC2CC2)s1", "note": "(top concentration 5000 nM)", "selective drug sensitivity score": 1.16}, {"smiles": "CCn1c(-c2nonc2N)nc2c(C#CC(C)(C)O)ncc(OC[C@H]3CCCNC3)c21", "note": "(top concentration 10000 nM)", "selective drug sensitivity score": -0.62}, {"smiles": "CN(c1ncccc1CNc1nc(Nc2ccc3c(c2)CC(=O)N3)ncc1C(F)(F)F)S(C)(=O)=O", "note": "(top concentration 10000 nM)", "selective drug sensitivity score": -0.18}, {"smiles": "CNc1ncc2cc(-c3cc(NC(=O)NCCC(C)(C)C)c(F)cc3C)c(C)nc2n1", "note": "(top concentration 10000 nM)", "selective drug sensitivity score": 4.66}, {"smiles": "C[C@@]1(C(=O)Nc2ccc(F)nc2)CCCN1c1nc(Nc2cc(C3CC3)n[nH]2)c2cccn2n1", "note": "(top concentration 10000 nM)", "selective drug sensitivity score": 2.58}, {"smiles": "Cc1nc(Nc2n[nH]c3c2CN(C(=O)N[C@H](CN(C)C)c2ccccc2)C3(C)C)c2sccc2n1", "note": "(top concentration 10000 nM)", "selective drug sensitivity score": -10.5}, {"smiles": "Cn1cc(-c2[nH]c3cc(NC(=O)[C@H](N)C4CCCCC4)cc4c3c2C=NNC4=O)cn1", "note": "(top concentration 10000 nM)", "selective drug sensitivity score": -6.52}]}]}
